Experiments:
[1] = test system: Different melanoma cell lines with various mutations; test: Viability test with CRO15, melanoma cell lines with various mutations; assay type: cell-based, human; conditions: 5 μM, 48 hours; FIG. 1C
Source text: (§1) Different melanoma cell lines were purchased from the American Tissue Culture Collection: A375 and WM9 cells are mutated on B-Raf, CDKN2A and PTEN proteins; SKmel28 cells are mutated on B-Raf and P53 proteins; 1205Lu cells are mutated on B-Raf and PTEN proteins; G-361 cells are mutated on B-Raf and CDKN2A proteins; C8161 cells are mutated on B-Raf and K-Ras proteins; WM3912 cells are mutated on B-Raf and CDKN2A proteins; MeWo cells are mutated on P53 and CDKN2A proteins; WM3918 presents no mutations on characteristic proteins.
(§2) For trypan blue staining, […] of cells (melanoma and normal human cells) were aseptically transferred to a 1.5 mL clear Eppendorf tube and incubated for 3 min at room temperature with an equal volume of 0.4% trypan blue solution. Viable cells were counted and the results are expressed as the percentage of the value of control cells. All the experiments are performed 3 times in triplicate.
Different melanoma cell lines with various mutations, patient cells with various mutations and normal human cells, were treated with 5 μM of CRO15 for 48 hours or DMSO (Control). At the end of stimulation, viable cells were counted using the trypan blue dye exclusion method. The results are normalized as percentages compare to the control and data means±SEM of three independent experiments performed in triplicate *p<0.05; **p<0.01; ***p<0.001. […]

[2] = test system: A375 resistant melanoma cells; test: Viability test of CRO15 on resistant melanoma cells; assay type: cell-based, human; conditions: 48 hr, FIG. 4A
Experimental: Resistant melanoma cell lines A375 and SKMel28 were a gift from Professor P. Marchetti and described in Corazao-Rozas et al. (2013). Cells were grown in RPMI 1640 or in DMEM supplemented with 10% of Foetal Calf Serum (FCS) and penicillin/streptomycin (100 U/ml/[…]) at 37° C. and 5% CO2.
as §2
A375 sensitive and resistant melanoma cells were treated with 5 μM of CRO15 for 48 hr or with 5 μM of PLX4032 for 48 hr or with DMSO (Control). At 48 hours, viable cells were counted using the trypan blue dye exclusion method. The results are normalized as percentages compare to the control and data means±SEM of three independent experiments performed in triplicate *p<0.05; **p<0.01; ***p<0.001.

[3] = test system: A375 sensitive melanoma cells; test: In vivo murine cancer model, A375 sensitive xenograft; set-up: species or system BALB/c nu/nu (nude) mice; conditions: 0.7 mg/mouse/day intraperitoneal
Experimental: (§3) Animal experiments were carried out in accordance with the Declaration of Helsinki and were approved by a local ethical committee CIEPAL (Comité Institutionnel d'Ethique Pour l'Animal de Laboratoire-Azur). Female immune-deficient BALB/c nu/nu (nude) mice were obtained at 5 weeks of age from Envigo Laboratory (Gannat, France). Nude mice were inoculated subcutaneously with A375 sensitive or resistant melanoma cells (1.0×10^6 cells/mouse). After tumor apparition (±5 days), animals received intraperitoneal injection of Labrafil (Control), PLX4032 (0.7 mg/mouse/day) or CRO15 (0.7 mg/mouse/day) dissolved in Labrafil. The growth tumor curves were determined by measuring the tumor volume using the equation V=(L*W2)/2 (V=tumor volume, W=tumor width, L=tumor length). At the end of the experiment, mice were euthanized by cervical dislocation and tumors were taken for western blot and immunofluorescence experiments (LC3, Cleaved Caspase 3). TUNEL assay was performed using the In Situ Cell Death Detection Kit (Roche, Meylan, France). The results are shown in FIGS. 3A and 3B (A375 sensitive melanoma cells), and 4B and 4C (A375 resistant melanoma cells).

[4] = test system: A375 resistant melanoma cells; test: In vivo murine cancer model, A375 resistant xenograft; set-up: species or system BALB/c nu/nu (nude) mice; conditions: 0.7 mg/mouse/day intraperitoneal
Experimental: as §3
In Vivo Murine Cancer Model Animal experiments were carried out in accordance with the Declaration of Helsinki and were approved by a local ethical committee CIEPAL (Comite Institutionnel d'Ethique Pour l'Animal de Laboratoire-Azur). Female immune-deficient BALB/c nu/nu (nude) mice were obtained at 5 weeks of age from Envigo Laboratory (Gannat, France). Nude mice were inoculated subcutaneously with A375 resistant melanoma cells (1.0×10^6 cells/mouse). After tumor apparition (+5 days), animals received intraperitoneal injection of Labrafil (Control), PLX4032 (0.7 mg/mouse/day) or MTF319 (0.7 mg/mouse/day) dissolved in Labrafil. The growth tumor curves were determined by measuring the tumor volume using the equation V=(L*W2)/2 (V=tumor volume, W=tumor width, L=tumor length). At the end of the experiment, mice were euthanized by cervical dislocation.

AMPK = test: Western blot assays, A375 Sensitive cells; assay type: cell-based, human; conditions: 5 μM, 6 hr, 12 hr or 24 hr; FIG. 2
Experimental: Western blot analyses were performed as described (Lehraiki et al., 2014). Proteins were extracted in buffer containing 50 mmol/l Tris-HCl (pH 7.5), 15 mmol/1, NaCl, 1% Triton X-100, and 1× protease and phosphatase inhibitors. Briefly, cell lysates […] were separated by SDS-PAGE, transferred onto a polyvinylidene fluoride membrane (Millipore), and then exposed to the appropriate antibodies. Proteins were visualized with the ECL System from Amersham. The western blot analyses shown are representative of at least three independent experiments.
Western Blot analysis: A375 Sensitive cells were treated with 5 μM of CRO15 for different time (6 hr, 12 hr or 24 hr) or with DMSO (Control) for 24 hr.

WM9 cells = test: Resistance development in WM9 cells after 8 weeks of drug exposure; assay type: cell-based, human; conditions: 8 weeks increasing concentrations, then 10 μM 48 hrs; FIG. 7B
Source text: as §1, §2
To study weither melanoma cells WM9 would develop resistance to CRO15, these cells were kept in culture during 8 weeks in presence of increasing concentrations of either, DMSO (control), PLX4032, CRO15 or MTF255. The starting concentration was 0.2 μM.
Along with non-treated WM9S (naive cells), drug-treated WM9S were then stimulated with 10 μM of each drug during 48 hrs. Viable cells were counted using the trypan blue dye exclusion method. […]

Nc1nc(Nc2ccccc2SSc2ccccc2Nc2nc(N)nc(C(Cl)(Cl)Cl)n2)nc(C(Cl)(Cl)Cl)n1 [CRO15, N2,N2′-(disulfanediylbis(2,1-phenylene))bis(6-(trichloromethyl)-1,3,5-triazine-2,4-diamine)]
viability of different melanoma cell lines with various mutations [1]: induces a decrease of the viability
decrease of the viability compared with PLX4032 ([2]; 5 μM each, A375 sensitive and resistant): more important with CRO15 than with PLX4032
cell viability, A375 resistant melanoma cells ([2]; 5 μM): induces a decrease of the cell viability
tumor volume ([3]; FIG. 3A): reduces
tumor weight ([3]; FIG. 3B): reduces
tumor volume ([4]; FIG. 4B, 6A): reduces
tumor weight ([4]; FIG. 4C, 6B): reduces
activation of AMPK (western blot) (AMPK): induces an activation of AMPK
cell viability of WM9 after 8 weeks of treatment and stimulation with the drug (WM9 cells): still able to induce cell death

Reference: patent US11440906B2, “Biguanide derivatives and their rearrangement products for use in the treatment of cancer” (CENTRE NATIONAL DE LA RECHERCHE SCIENTIFIQUE, priority 2017, dated 2022)
